According to patent US20210363233A1, “TREATMENT OF A DISEASE OF THE GASTROINTESTINAL TRACT WITH AN IL-12/IL-23 INHIBITOR” (Progenity, Inc., priority 2018, published 2021):
Structures can show the parent of a compound that is named as a salt. Where two headings read alike, the source gives them in different places.

Key:
[1] = Pharmacokinetic study of oral vs intra-cecal administration of tacrolimus (Example 13); assay type: in vivo, Yorkshire-Cross farm swine; settings: female, Yorkshire-Cross
Text: (§1) No further randomization procedure was employed.

[2] = Tissue, plasma and GI content pharmacokinetics of tacrolimus, oral vs intra-cecal ingestible device delivery (Example 10); assay type: in vivo, Yorkshire-Cross farm swine; settings: female, Yorkshire-Cross, pig
Procedure: The primary objective of this study was to compare the tissue, plasma, rectal sample, and GI content pharmacokinetics of tacrolimus through oral versus intra-cecal ingestible device delivery in normal Yorkshire-Cross farm swine.
as §1
Animals in Group 1 received an ingestible device containing 0.8 mL of vehicle solution (80% alcohol, 20% HCO-60). Animals in Group 2 received orally […] liquid formulation of tacrolimus at 4 mg/0.8 mL per animal (Prograf: 5 mg/mL). Animals in Group 3 received intra-cecally an ingestible device containing tacrolimus at 1 mg in 0.8 mL per ingestible device. Animals in Group 4 received intra-cecally an ingestible device containing tacrolimus at 2 mg in 0.8 mL per ingestible device. Animals in Group 5 received intra-cecally an ingestible device containing tacrolimus at 4 mg in 0.8 mL per ingestible device. To control for potential confounding effects of the surgery, all groups fast on Day −11 at least 24 hr before being subjected to anesthesia followed by surgical placements of a cecal port by a veterinary surgeon at Day −10. All animals were fasted for at least 12 hr prior to dosing on Day 1. Animals were dosed via either intra-cecal dosing (IC) or oral dosing (PO) at Day 1 (between […].). […]
Approximately 200˜400 mg of rectal content were collected, if available, with a fecal swab (Copan Diagnostics Nylon Flocked Dry Swabs, 502CS01). The fecal swab was pre-weighed and weighed after collection in the collection tube (Sterile Tube and Cap No Media, PFPM913S), and the sample weight was recorded. […]
For tissue necropsy, small intestine fluid and cecal fluid were collected separately from all the animals into two separate square plastic bottles, and stored at −20° C. The length and diameter of the cecum and the colon was measured from one animal in each group and recorded for reference. […] All samples were weighed, and the tissue sample weights were recorded. […] Around 3 grams of the total punched sample were collected into a pre-weighed 15-mL conical tube, and the tissue weight was recorded. […]

[3] = test system: cytokines involved in the JAK/STAT signaling pathway; settings: PO or IC administration; 1 h and 3 h post-treatment

C=CC[C@@H]1/C=C(\C)C[C@H](C)C[C@H](OC)[C@H]2O[C@@](O)(C(=O)C(=O)N3CCCC[C@H]3C(=O)O[C@H](/C(C)=C/[C@@H]3CC[C@@H](O)[C@H](OC)C3)[C@H](C)[C@@H](O)CC1=O)[C@H](C)C[C@@H]2OC [tacrolimus]
Cmax ([1]; pig, blood, Route PO, Dosage 0.09 mg/kg): 3.53 ± 3.84 ng/mL
AUC(0-t) ([1]; pig, in vivo, po, 0.09 mg/kg): 16.8 ± 3.64 ng·h/mL
Ratio Tissue(mean) (ng/g)/Trough(12 hr)(ng/mL) ([1]; pig, in vivo, po, 0.09 mg/kg): 0
Ratio Tissue(mean) (ng/g)/Trough(12 hr)(ng/mL) ([1]; swine, in vivo, po, 0.09 mg/kg): 0
Cmax ([2]; in vivo, 0.09 mg/kg, Route PO, Dose (mg · kg) 0.09): 3.53 ± 3.84 ng/mL
concentration at 12 h ([2]; in vivo, po, Trough (12 hr)): 9.57 ± 0.291 ng/mL
concentration at 12 h ([2]; whole blood, other: oral and intra-cecal (all groups), all groups (FIGS. 87-89 and Table 29), read-out: blood trough concentrations): < 10 ng/mL

C[C@@H]1CCN(C(=O)CC#N)C[C@@H]1N(C)c1ncnc2[nH]ccc12 [tofacitinib citrate]
IL-6 expression in plasma [3]: inhibition of IL-6 expression was observed
